{
  "source": "paper PMC7177456",
  "about": "“A Peptidomimetic Fluorescent Probe to Detect the Trypsin β2 Subunit of the Human 20S Proteasome” (International Journal of Molecular Sciences, 2020)",
  "key": {"20S proteasome [1]": {"test_system": "20S proteasome", "assay": "Inhibitory studies: cleavage of substrate 1 in the presence of selective proteasome inhibitors", "type": "biochemical, human", "conditions": "deduced from cleavage with selective inhibitors", "excerpt": "A black, 96-well flat-bottomed microplate (Brand GMBH, Wertheim, Germany) was used for the inhibitory studies. Two inhibitors, carfilzomib (a selective inhibitor of the β5 subunit of the 20S proteasome) and epoxomicin, were purchased from Merck (Darmstadt, Germany) and used at final concentrations of 1.15 × 10^−6 M and 5.0 × 10^−5 M, respectively. The β2 inhibitor, PR671A [20], and the β1 inhibitor, NCOO1 [21], were used at a concentration of 5 × 10^−6 M. These reagents were kindly provided by Alexei Kisselev from Dartmouth University (Dartmouth, NH, USA). The concentration of 20S proteasome was 1.07 × 10^−9 M. The buffered proteasome solution was mixed with 10 µL inhibitor solution. This mixture was incubated for 30 min at 37 °C. After this period, the substrate solution was added at a concentration of 1.34 × 10^−5 M, and the fluorescence was measured over time at 320 nm excitation and 450 nm emission wavelengths. All measurements were performed in triplicate."}, "[2]": {"test_system": "20S proteasome in human urine", "assay": "Proteasome activity in human urine with substrate 1", "type": "biochemical", "conditions": "for proteasome activity (cleavage of substrate 1): 80 µL urine, substrate 1.34 × 10^−5 M, 320/450 nm, Mann–Whitney p < 0.0001", "description": "All urine samples were purchased from St. Vincent de Paul Hospital in Gdynia, Poland (contract no. JN/777/R720/08.11.17). All methods and procedures were performed in accordance with this contract agreement. Participants were informed about the study and sample collection, and their written consent was collected. […] Therefore, the samples were considered unnamed. The samples of human urine were taken during mid-urination and kept for 48 h at −80 °C until required. All samples used for assay development were taken from healthy volunteers (n = 5), and oncological samples were obtained from patients diagnosed with bladder cancer (n = 8).\nThe urine samples were thawed at room temperature, gently vortexed, and briefly centrifuged (<20 s) to collect the sample at the bottom of the tube. A total of 80 μL urine was transferred to a 96-well microplate and mixed with assay buffer and substrate 1. Proteasome activity was assayed as described earlier. Briefly, 80 µL of urine from healthy volunteers, urine from patients diagnosed with bladder cancer, and bladder cancer urine supplemented by the inhibitor PR671A were mixed with 200 µL of the assayed buffer and 20 µL of the substrate at a concentration of 1.34 × 10^−5 M, and the fluorescence was quantified. An excitation wavelength equal to 320 nm and an emission wavelength of 450 nm were used.\nThe resulting data were analyzed using Graphpad Prism version 6.0 software (GraphPad Software Inc., La Jolla, CA, USA). All fluorescent measurements were performed in triplicate and represented by the mean ± standard deviation (SD). A two-tailed Mann–Whitney test was applied for the statistical analysis (p < 0.0001)."}, "20S proteasome [3]": {"test_system": "20S proteasome", "assay": "Library deconvolution, cleavage rates of sublibraries and individual compounds", "type": "biochemical, human", "conditions": "P4 Dap(O2(Cbz)), P3 Dap(GO1); 3.4 × 10^−6 M; 20S proteasome 1.46 × 10^−9 M; pH 8.2, 37 °C", "description": "Deconvolution of the synthesized library with a fixed Arg in position P1 and diversified by DAPEG residues at positions P2–P4 was performed in a solution using a mix and split approach. […] Since the proteasome structure has three pairs of catalytically active subunits with distinct specificities (chymotrypsin, trypsin, and caspase), we repeated these experiments in the presence of a trypsin subunit inhibitor (PR671A). In effect, a 96% reduction in activity was recorded. This observation allowed us to proceed with screening at position P3 (Figure 2A).\nFigure 2 Deconvolution of the library (at an average concentration of 3.4 × 10^−6 M) with the general formula ABZ–X4–X3–X2–Arg–ANB–NH2 against the 20S proteasome (1.46 × 10^−9 M). (A) Cleavage rates of individual sublibraries recorded for position X4; (B) Cleavage rates of individual sublibraries recorded for position X3; (C) Cleavage rates of individual compounds modified in position X2. […]\nFor enzymatic studies, the human 20S proteasome, 26S proteasome, and 20S immunoproteasome were purchased from Boston Biochem (Cambridge, MA, USA). […] The volume composition of each well of the 96-well plate was: 20 µL library, 160 µL assay buffer, and 20 µL 20S proteasome solution at a concentration of 1.07 × 10^−9 M. Absorbance or fluorescence measurements were performed on a FluoroStar OMEGA multimode microplate reader (BMG, Ortenberg, Germany). […]"}},
  "data": [
    {"substance": "ABZ–Dap(O2(Cbz))–Dap(GO1)–Dap(O2(Cbz))–Arg–ANB–NH2 [substrate 1]", "values": [
      {"measurement": "sub-site selectivity of hydrolysis", "setting": "20S proteasome [1]", "value": "hydrolyzed exclusively by the β2 sub-site"},
      {"measurement": "fluorescence (in words)", "setting": "[2]; bladder cancer urine samples, n = 8", "value": "fluorescence increase that was observed in all samples"},
      {"measurement": "proteasome activity (cleavage of substrate 1)", "setting": "[2]; bladder cancer urine, n = 8, mean ± SD", "value": "48.4 ± 28.1"},
      {"measurement": "fluorescence (in words)", "setting": "[2]; healthy urine samples, n = 5", "value": "insignificant background levels of fluorescence"},
      {"measurement": "proteasome activity (cleavage of substrate 1)", "setting": "[2]; healthy urine, n = 5, mean ± SD", "value": "0.1 ± 0.04"},
      {"measurement": "cleavage rate, position P2 (X2), individual compounds", "setting": "20S proteasome [3]", "value": "significantly higher compared to the rates of the other tested systems"}
    ]}
  ]
}
